The Ki is a dissociation constant, usually derived from enzyme kinetics or from competition with a known ligand. The IC50 is the concentration that gives 50% inhibition.

Read-outs that look alike come from different tables or passages of the source. Starred links: 1 amine or outer side, 2 acyl side, 3 side chain; linkers in the order of their positions; H or OH if unused. Positions of bridges follow the written chain, without caps; N, C: chain ends. Non-standard residues stand in square brackets, D forms with d. Residues, ends and D or L forms follow the SMILES beside them. *: point of attachment. dαMeDab = C[C@](CCN[*:3])(N[*:1])C(=O)[*:2]; Arg(Me) = CNC(=N)NCCC[C@H](N)C(=O)O; dPhg = N[C@@H](C(=O)O)c1ccccc1; dDab = NCC[C@@H](N)C(=O)O; Isobutyryl = CC(C)C(=O)*; Abu = CC[C@H](N)C(=O)O

Here are results for four compounds from US20210130401A1, “PEPTIDOMIMETIC INHIBITORS OF THE WDR5-MLL INTERACTION” (THE REGENTS OF THE UNIVERSITY OF MICHIGAN, priority 2017, published 2021).

Data set [1] deals with T1, WDR5 (Homo sapiens, UniProt P61964).
T1 construct: N-terminal His-tagged WDR5 protein (residues 24-334), named WDR5Δ23; made in house; host or cells: E. coli Rosetta 2 (DE3)
The data set is described as follows: fluorescence polarization (FP) based competitive binding assay to WDR5 protein. (In fluorescence polarisation assays a small probe gives low polarisation when free and higher when bound to something large.)
Experimental: The plates were incubated at room temperature on a shaker for 3h, and then the mP values were measured using the Tecan Infinite M-1000 plate reader (Tecan U.S., Research Triangle Park, N.C.).

The target in data set [2] is T2, MLL complex (Homo sapiens, UniProt P61964).
T2 construct: full length human WDR5 with N-terminal 6×His tag; purchased Activmotif (Carlsbad, Calif.)
Kind of data set: AlphaLISA MLL HMT functional assay (cell-free). It counts as biochemical. The following applies: read-out: Inhibition of MLL HMT Activity IC50 ± SD. (In general: In Alpha technology, singlet oxygen from a donor bead excites a nearby acceptor bead.)
Text: To avoid multiple wash and transfer steps, an amplified luminescent proximity homogeneous assay (AlphaLISA) was developed and optimized to evaluate the MLL HMT inhibitory activities of the Compounds of the Disclosure.
In this assay, recombinant nucleosomes are initially treated with the MLL complex for methylation in the presence of S-Adenosyl methionine (SAM) as cofactor before stopping the reaction with high salt buffer. Then, anti-H3K4Mel/2 antibody, which is covalently linked to acceptor beads, and biotinylated anti-H3 (C-terminus) antibody were added.
Anti-Histone H3 Lysine 4 (H3K4mel-2) AlphaLISA acceptor beads, AlphaScreen Streptavidin donor beads and biotinylated anti-H3 (C-terminus) antibody were obtained from PerkinElmer Life Sciences (Waltham, Mass.). 2.5 μl of compound serial dilutions in assay buffer with 4% DMSO and 5 μl of pentameric MLL complex solution were added into a white low volume 384 well microtiter plate which was incubated for 30 minutes with gentle shaking at room temperature, followed by adding 2.5 μl of SAM/Nucleosome mixture. The methylation reaction was performed in 50 mM Tris, pH 8.5 with 1 mM DTT and 0.01% Tween-20 added right before the assay. Final concentrations of MLL complex, SAM, and nucleosomes were 5 nM, 200 nM, and 3 nM, respectively. Final DMSO in the reaction mixture was 1%. The reaction was allowed to perform for 120 minutes in dark with gentle shaking at room temperature. […] 5 μL of high salt stopping solution (50 mM Tris, pH 7.4 with 1 M NaCl, 0.1% Tween-20, and 0.3% poly-L-Lysine) was added to stop the methylation reactions for 15 minutes. 5 μl of 5× acceptor beads/biotinylated anti-H3 antibody mixture in detection buffer (50 mM Tris, pH 7.4 with 0.3 M NaCl, 0.1% Tween-20, and 0.001% poly-L-Lysine) was added, followed by 1 hour incubation at room temperature to allow full interaction between antibodies and methylated nucleosomes. Add 5 μL of 5× streptavidin donor beads in detection and incubate 30 minutes.

In data set [3] the test system is HL-60 leukemia cells carrying no MLL fusion. Kind of data set: cell viability assay (WST-8), HL-60. It counts as cell-based. The following applies: for IC50: read-out: Cell Growth Inhibition IC50 (μM) HL-60. The method, then: Cell viability was determined using the WST-8 cell proliferation assay kit (Dojindo Molecular Technologies) according to manufacturer's instructions. Three independent experiments in triplicates were performed.
(Formazan colour is commonly taken as a measure of viable cells.)

Data set [4] concerns MV4;11 leukemia cells carrying MLL-AF4 fusion. The data set is described as follows: cell viability assay (WST-8), MV4;11. The class given is cell-based. As to conditions: Homo sapiens, MV4-11, 96 h, read-out: Cell Growth Inhibition IC50 (μM) MV-4-11.
Experimental: (§2) To assess cell viability, MOLM-13 leukemia cells carrying MLL-AF9 fusion, MV4;11 leukemia cells carrying MLL-AF4 fusion or HL-60 leukemia cells carrying no MLL fusion were seeded 1×10^4 cell/well in 96-well plates and treated with an inhibitor for 4 days at different concentrations, in culture media containing 0.2% DMSO as the final concentration. Cell viability was determined using the WST-8 cell proliferation assay kit (Dojindo Molecular Technologies) according to manufacturer's instructions. Three independent experiments in triplicates were performed.
Data set [5] concerns MOLM-13 leukemia cells carrying MLL-AF9 fusion. The data set is described as follows: cell viability assay (WST-8), MOLM-13. As to conditions: Homo sapiens, MOLM-13, 96 h, read-out: Cell Growth Inhibition IC50 (μM) MOLM-13. It counts as cell-based.
Experimental: as §2
Data set [6] concerns the target SET1a (Homo sapiens, UniProt O15047). Kind of data set: HMT assay, SET1 family specificity. It counts as biochemical. As to conditions: up to 100 μM; data not shown. The method, then:
(§1) The specificity of Cpd. No. 5 was tested against MLL and other SET1 family members (MLL2, MLL3, MLL4, SET1a and SET1b) using the previously published HMT assays (Karatas et al., J. Med. Chem. 53:5179-5185 (2010)). Cpd.

For data set [7], the system named is MLL4. Kind of data set: HMT assay, SET1 family specificity. As to conditions: up to 100 μM; data not shown. The class given is biochemical. The method, then: as §1
Data set [8] concerns the target MLL3 (Homo sapiens, UniProt Q8NEZ4). Kind of data set: HMT assay, SET1 family specificity. The following applies: up to 100 μM; data not shown. It counts as biochemical. The method, then: as §1
The target of data set [9] is SET1b (Homo sapiens, UniProt Q9UPS6). The data set is described as follows: HMT assay, SET1 family specificity. As to conditions: up to 100 μM; data not shown. It counts as biochemical. The method, then:
as §1

Data set [10] relates to MLL2. Kind of data set: HMT assay, SET1 family specificity. It counts as biochemical. As to conditions: up to 100 μM; data not shown. The method, then:
as §1

Data set [11] in a line: stability in cell culture media. The class given is physicochemical. As to conditions: up to 7 days; data not shown. The method, then: To assess the effect of long-term treatment of compound Cpd. No. 5 on leukemia cells, MOLM-13 and MV4;11 cell lines were plated at a density of 5×10^4 cell/ml in 24-well plates (2 ml/well), and treated with the relevant concentrations. On day 4, cell viability for each treatment was measured using the WST-8 cell count kit. Then 10% of viable cells from each well were transferred to freshly prepared medium containing corresponding concentrations of compound Cpd. No. 5 and cultured for additional 3 days. On day 7, cell viability for each treatment was determined. In this experiment, 100,000 cells were seeded in each well in 24-well plates, whereas the cell growth inhibition data obtained for Cpd. No. 64 in Table 2 was obtained by seeding 10,000 cells in 96-well plates. Additionally, Cpd. No. 5 is stable in cell culture media up to 7 days (data not shown).

[12] abbreviates: calculated from IC50 by published equation, read-out: Binding Affinity to WDR5 Ki ± SD.
Setting [13] is: read-out: Binding Affinity to WDR5 IC50 ± SD.
Setting [14] is: Homo sapiens, HL-60, 96 h, 4 days treatment.

Regarding `CC[C@@H]1NC(=O)[C@H](CCCNC(=N)N)NC(=O)[C@H](NC(=O)C(C)C)CCNC(=O)[C@@H](c2ccccc2)NC1=O` [Cpd. No. 1, N-((3R,6S,9S,12R)-6-ethyl-9-(3-guanidinopropyl)-2,5,8,11-tetraoxo-3-phenyl-1,4,7,10-tetraazacyclotetradecan-12-yl)isobutyramide] (Isobutyryl-[dDab]R[Abu][dPhg]; lactam 1-C), the Ki in data set [1] (setting [12]) was 0.8 ± 0.1 nM. The 50% inhibitory concentration (IC50) is 6.2 ± 0.5 nM in data set [1] (setting [13]); 1.8 ± 0.4 nM in [2]; greater than 100 µM in data set [3] (setting [14]); 43.4 µM in [4] (4 days treatment); 42.8 µM in data set [5] (4 days treatment).
`CC[C@@H]1NC(=O)[C@H](CCCNC(=N)NC)NC(=O)[C@](C)(NC(=O)C(C)C)CCNC(=O)[C@@H](c2ccccc2)NC1=O` [Cpd. No. 5, N-((3R,6S,9S,12R)-6-ethyl-12-methyl-9-(3-(3-methylguanidino)propyl)-2,5,8,11-tetraoxo-3-phenyl-1,4,7,10-tetraazacyclotetradecan-12-yl)isobutyramide] (Isobutyryl-[dαMeDab][Arg(Me)][Abu][dPhg]; lactam 1-C): the “inhibition of the HMT activity of SET1a” value in [6] was “no or a minimal effect”. For the same compound, the “inhibition of the HMT activity of MLL4” value in data set [7] was “no or a minimal effect”. Also, the “inhibition of the HMT activity of MLL3” value in data set [8] is reported as “no or a minimal effect”. Besides, the “inhibition of the HMT activity of SET1b” value in data set [9] is “no or a minimal effect”. For the same compound, the “inhibition of the HMT activity of MLL2” value in data set [10] was “no or a minimal effect”. The IC50 in [1] (Table 3A, read-out: Binding Affinity to WDR5 IC50) was determined as 2.13 nM; in data set [1] (setting [13]), 0.9 ± 0.2 nM; in data set [3] (4 days treatment) it was 8.56 ± 1.14 µM; in [3] (setting [14]), 8.6 µM; in data set [4] (4 days treatment), 0.25 µM; in data set [5] (4 days treatment), 0.21 µM. In addition, the inhibitory constant (Ki) was less than 1 nM in data set [1] (Table 3A, read-out: Binding Affinity to WDR5 Ki) and less than 1 nM in data set [1] (setting [12]). In [3] (cell growth inhibition IC50 ratio), the “selectivity for the MV4;11 and MOLM-13 cell lines harboring MLL translocations over the HL-60 cell line” value is greater than 30 fold. Also, the “stability in cell culture media” value in data set [11] was “stable”.
Regarding `CC[C@@H]1NC(=O)[C@H](CCCNC(=N)N)NC(=O)[C@](C)(NC(=O)C(C)C)CCCCCCNC(=O)[C@@H](c2ccccc2)NC1=O` [Cpd. No. 76, N-((3R,6S,9S,12R)-6-ethyl-9-(3-guanidinopropyl)-12-methyl-2,5,8,11-tetraoxo-3-phenyl-1,4,7,10-tetraazacyclooctadecan-12-yl)isobutyramide], the 50% inhibitory concentration (IC50) in data set [1] was 1 ± 0.2 nM; in [2] it was 216 ± 88 nM; in [3] (Homo sapiens, HL-60, 96 h) it was 29.7 ± 11.5 µM; in [4], 3.2 ± 0.4 µM; in data set [5], 5.6 ± 0.7 µM. In data set [1], the inhibition constant Ki is less than 1 nM.
With `CC[C@@H]1NC(=O)[C@H](CCCNC(=N)N)NC(=O)[C@](C)(NC(=O)C(C)C)CCCCCCCCNC(=O)[C@@H](c2ccccc2)NC1=O` [Cpd. No. 77, N-((3R,6S,9S,12R)-6-ethyl-9-(3-guanidinopropyl)-12-methyl-2,5,8,11-tetraoxo-3-phenyl-1,4,7,10-tetraazacycloicosan-12-yl)isobutyramide], the IC50 in [1] was 1.3 ± 0.2 nM; in data set [2], 744 ± 79 nM; in data set [3] (Homo sapiens, HL-60, 96 h), greater than 100 µM; in data set [4], 7.5 ± 3 µM; in [5] it was 21.6 ± 4.8 µM. For the same compound, the Ki in data set [1] is less than 1 nM.
